Test results from US11117900B2 (Vertex Pharmaceuticals Incorporated, priority 2012, dated 2021).

System: HCT116 colorectal cancer cells
Test: Cisplatin sensitization assay (96 h MTS cell viability);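 further: compound concentration needed to lower the IC50 of Cisplatin alone by a set fold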
Format: cell-based
Settings: Cisplatin sensitization value
Summary of the method: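 HCT116 cells were dosed simultaneously with compound and cisplatin as a full matrix of 2-fold serial dilutions from 10 μM top final concentration. Incubation was 96 h at 37° C., 5% CO2, followed by 1 h with MTS reagent for the viability read-out. Sensitization values were binned into +++, ++ and + categories.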

SMILES	Cisplatin Sensitization Assay
CN(C)CCCOc1ccncc1NC(=O)c1c(N)nn2cc(Cl)cnc12 [I-O-52, 2-amino-6-chloro-N-(4-(3-(dimethylamino)propoxy)pyridin-3-yl)pyrazolo[1,5-a]pyrimidine-3-carboxamide]	+ (Compounds with a Cisplatin sensitization value >0.2 μM but <5 μM are marked with “+.”)
Nc1nn2cc(Cl)cnc2c1C(=O)Nc1cnccc1OCCCO [I-O-53, 2-amino-6-chloro-N-(4-(3-hydroxypropoxy)pyridin-3-yl)pyrazolo[1,5-a]pyrimidine-3-carboxamide]	+++ (Compounds with a Cisplatin sensitization value of <0.02 μM are marked with “+++.”)
Nc1nn2cc(Cl)cnc2c1C(=O)Nc1cnccc1O[C@@H]1CCOC1 [I-O-54, (R)-2-amino-6-chloro-N-(4-((tetrahydrofuran-3-yl)oxy)pyridin-3-yl)pyrazolo[1,5-a]pyrimidine-3-carboxamide]	+++ (Compounds with a Cisplatin sensitization value of <0.02 μM are marked with “+++.”)
COCCOc1ccncc1NC(=O)c1c(N)nn2cc(Cl)cnc12 [I-O-55, 2-amino-6-chloro-N-(4-(2-methoxyethoxy)pyridin-3-yl)pyrazolo[1,5-a]pyrimidine-3-carboxamide]	++ (Compounds with a Cisplatin sensitization value >0.02 μM but <0.2 μM are marked with “++.”)
CCOc1ccncc1NC(=O)c1c(N)nn2cc(Cl)cnc12 [I-O-56, 2-amino-6-chloro-N-(4-ethoxypyridin-3-yl)pyrazolo[1,5-a]pyrimidine-3-carboxamide]	+++ (Compounds with a Cisplatin sensitization value of <0.02 μM are marked with “+++.”)
COc1ccncc1NC(=O)c1c(N)nn2cc(Cl)cnc12 [I-O-57, 2-amino-6-chloro-N-(4-methoxypyridin-3-yl)pyrazolo[1,5-a]pyrimidine-3-carboxamide]	+++ (Compounds with a Cisplatin sensitization value of <0.02 μM are marked with “+++.”)
Nc1nn2cc(Cl)cnc2c1C(=O)Nc1cnccc1O[C@H]1CCOC1 [I-O-58, (S)-2-amino-6-chloro-N-(4-((tetrahydrofuran-3-yl)oxy)pyridin-3-yl)pyrazolo[1,5-a]pyrimidine-3-carboxamide]	+++ (Compounds with a Cisplatin sensitization value of <0.02 μM are marked with “+++.”)
Nc1nn2cc(Cl)cnc2c1C(=O)Nc1cnccc1OCC(F)(F)F [I-O-59, 2-amino-6-chloro-N-(4-(2,2,2-trifluoroethoxy)pyridin-3-yl)pyrazolo[1,5-a]pyrimidine-3-carboxamide]	+++ (Compounds with a Cisplatin sensitization value of <0.02 μM are marked with “+++.”)
Nc1nn2cc(Cl)cnc2c1C(=O)Nc1cnccc1OCCN1CCOCC1 [I-O-60, 2-amino-6-chloro-N-(4-(2-morpholinoethoxy)pyridin-3-yl)pyrazolo[1,5-a]pyrimidine-3-carboxamide]	++ (Compounds with a Cisplatin sensitization value >0.02 μM but <0.2 μM are marked with “++.”)
Nc1nn2cc(Cl)cnc2c1C(=O)Nc1cnccc1OC1CCOCC1 [I-O-61, 2-amino-6-chloro-N-(4-((tetrahydro-2H-pyran-4-yl)oxy)pyridin-3-yl)pyrazolo[1,5-a]pyrimidine-3-carboxamide]	+++ (Compounds with a Cisplatin sensitization value of <0.02 μM are marked with “+++.”)
Nc1nn2cc(Cl)cnc2c1C(=O)Nc1cnccc1OC1CN2CCC1CC2 (stereo not drawn) [I-O-62, 2-amino-6-chloro-N-(4-(quinuclidin-3-yloxy)pyridin-3-yl)pyrazolo[1,5-a]pyrimidine-3-carboxamide]	+++ (Compounds with a Cisplatin sensitization value of <0.02 μM are marked with “+++.”)
CN1CCC(Oc2ccncc2NC(=O)c2c(N)nn3cc(Cl)cnc23)CC1 [I-O-64, 2-amino-6-chloro-N-(4-((1-methylpiperidin-4-yl)oxy)pyridin-3-yl)pyrazolo[1,5-a]pyrimidine-3-carboxamide]	+++ (Compounds with a Cisplatin sensitization value of <0.02 μM are marked with “+++.”)
Nc1nn2cc(Cl)cnc2c1C(=O)Nc1cnccc1OC1CCCOC1 (stereo not drawn) [I-O-65, 2-amino-6-chloro-N-(4-((tetrahydro-2H-pyran-3-yl)oxy)pyridin-3-yl)pyrazolo[1,5-a]pyrimidine-3-carboxamide]	+++ (Compounds with a Cisplatin sensitization value of <0.02 μM are marked with “+++.”)
Nc1nn2cc(Cl)cnc2c1C(=O)Nc1cnccc1OCCO [I-O-66, 2-amino-6-chloro-N-(4-(2-hydroxyethoxy)pyridin-3-yl)pyrazolo[1,5-a]pyrimidine-3-carboxamide]	+ (Compounds with a Cisplatin sensitization value >0.2 μM but <5 μM are marked with “+.”)
COCCN1CCC[C@H](Oc2ccncc2NC(=O)c2c(N)nn3cc(Cl)cnc23)C1 [I-O-67, (S)-2-amino-6-chloro-N-(4-((1-(2-methoxyethy)piperidin-3-yl)oxy)pyridin-3-yl)pyrazolo[1,5-a]pyrimidine-3-carboxamide]	++ (Compounds with a Cisplatin sensitization value >0.02 μM but <0.2 μM are marked with “++.”)
CN(C)CCOc1cc(Cl)ncc1NC(=O)c1c(N)nn2cc(Cl)cnc12 [I-O-68, 2-amino-6-chloro-N-(6-chloro-4-(2-(dimethylamino)ethoxy)pyridin-3-yl)pyrazolo[1,5-a]pyrimidine-3-carboxamide]	++ (Compounds with a Cisplatin sensitization value >0.02 μM but <0.2 μM are marked with “++.”)
CN1CC[C@H](Oc2ccncc2NC(=O)c2c(N)nn3cc(Cl)cnc23)C1 [I-O-69, (S)-2-amino-6-chloro-N-(4-((1-methylpyrrolidin-3-yl)oxy)pyridin-3-yl)pyrazolo[1,5-a]pyrimidine-3-carboxamide]	++ (Compounds with a Cisplatin sensitization value >0.02 μM but <0.2 μM are marked with “++.”)
Nc1nn2cc(Cl)cnc2c1C(=O)Nc1cnccc1Oc1cccnc1 [I-O-70, 2-amino-6-chloro-N-(4-(pyridin-3-yloxy)pyridin-3-yl)pyrazolo[1,5-a]pyrimidine-3-carboxamide]	+++ (Compounds with a Cisplatin sensitization value of <0.02 μM are marked with “+++.”)
CN(C)CCOc1cc(C(F)(F)F)ncc1NC(=O)c1c(N)nn2cc(Cl)cnc12 [I-O-71, 2-amino-6-chloro-N-(4-(2-(dimethylamino)ethoxy)-6-(trifluoromethyl)pyridin-3-yl)pyrazolo[1,5-a]pyrimidine-3-carboxamide]	+ (Compounds with a Cisplatin sensitization value >0.2 μM but <5 μM are marked with “+.”)
Nc1nn2cc(Cl)cnc2c1C(=O)Nc1cnccc1OC1CC2(CNC2)C1 [I-O-72, N-(4-(2-azaspiro[3.3]heptan-6-yloxy)pyridin-3-yl)-2-amino-6-chloropyrazolo[1,5-a]pyrimidine-3-carboxamide]	+ (Compounds with a Cisplatin sensitization value >0.2 μM but <5 μM are marked with “+.”)
Nc1nn2cc(Cl)cnc2c1C(=O)Nc1cnccc1OC1CNC1 [I-O-73, 2-amino-N-(4-(azetidin-3-yloxy)pyridin-3-yl)-6-chloropyrazolo[1,5-a]pyrimidine-3-carboxamide]	+ (Compounds with a Cisplatin sensitization value >0.2 μM but <5 μM are marked with “+.”)
Nc1nn2cc(Cl)cnc2c1C(=O)Nc1cnccc1OC1CCCNC1 (stereo not drawn) [I-O-75, 2-amino-6-chloro-N-(4-(piperidin-3-yloxy)pyridin-3-yl)pyrazolo[1,5-a]pyrimidine-3-carboxamide]	++ (Compounds with a Cisplatin sensitization value >0.02 μM but <0.2 μM are marked with “++.”)
Nc1nn2cc(Cl)cnc2c1C(=O)Nc1cnccc1O[C@H]1CCNC1 [I-O-76, (S)-2-amino-6-chloro-N-(4-(pyrrolidin-3-yloxy)pyridin-3-yl)pyrazolo[1,5-a]pyrimidine-3-carboxamide]	++ (Compounds with a Cisplatin sensitization value >0.02 μM but <0.2 μM are marked with “++.”)
Nc1nn2cc(Cl)cnc2c1C(=O)Nc1cnccc1O[C@H]1C[C@]2(CCN2)C1 [I-O-78, N-(4-((4s,6r)-1-azaspiro[3.3]heptan-6-yloxy)pyridin-3-yl)-2-amino-6-chloropyrazolo[1,5-a]pyrimidine-3-carboxamide]	+ (Compounds with a Cisplatin sensitization value >0.2 μM but <5 μM are marked with “+.”)
Nc1nn2cc(Cl)cnc2c1C(=O)Nc1cnccc1O[C@H]1C[C@@]2(CCN2)C1 [I-O-79]	++ (Compounds with a Cisplatin sensitization value >0.02 μM but <0.2 μM are marked with “++.”)
Nc1nn2cc(Cl)cnc2c1C(=O)Nc1cnccc1OC1CCNCC1 [I-O-80, 2-amino-6-chloro-N-(4-(piperidin-4-yloxy)pyridin-3-yl)pyrazolo[1,5-a]pyrimidine-3-carboxamide]	+++ (Compounds with a Cisplatin sensitization value of <0.02 μM are marked with “+++.”)
N#CCc1cnc2c(C(=O)Nc3cnccc3OC3CNC3)c(N)nn2c1 [I-O-82, 2-amino-N-(4-(azetidin-3-yloxy)pyridin-3-yl)-6-(cyanomethyl)pyrazolo[1,5-a]pyrimidine-3-carboxamide]	++ (Compounds with a Cisplatin sensitization value >0.02 μM but <0.2 μM are marked with “++.”)
N#CCc1cnc2c(C(=O)Nc3cnccc3OCCN)c(N)nn2c1 [I-O-83, 2-amino-N-(4-(2-aminoethoxy)pyridin-3-yl)-6-(cyanomethyl)pyrazolo[1,5-a]pyrimidine-3-carboxamide]	+++ (Compounds with a Cisplatin sensitization value of <0.02 μM are marked with “+++.”)
N#CCc1cnc2c(C(=O)Nc3cnccc3OC3CCNCC3)c(N)nn2c1 [I-O-84, 2-amino-6-(cyanomethyl)-N-(4-(piperidin-4-yloxy)pyridin-3-yl)pyrazolo[1,5-a]pyrimidine-3-carboxamide]	++ (Compounds with a Cisplatin sensitization value >0.02 μM but <0.2 μM are marked with “++.”)
Nc1nn2cc(F)cnc2c1C(=O)Nc1cnccc1O[C@H]1CCCNC1 [I-O-85, (S)-2-amino-6-fluoro-N-(4-(piperidin-3-yloxy)pyridin-3-yl)pyrazolo[1,5-a]pyrimidine-3-carboxamide]	+++ (Compounds with a Cisplatin sensitization value of <0.02 μM are marked with “+++.”)
